Measurements from patent publication US5089623A, “Certain imidate insecticides” (Imperial Chemical Industries Plc, priority 1990, dated 1992).

Legend:
Format in all cases: in vivo
[1] = tested on: Housefly [Musca domestica]; assay: Housefly insecticidal test (HF); conditions: per 25 female houseflies, 48 hours
[2] = tested on: Tobacco Budworm [Heliothis virescens (Fabricius)]; assay: Tobacco budworm contact test (TBW-C); conditions: second-instar larvae, 5 days, percent in solution
Protocol: (§1) The compounds in Tables 1 and 2 above were tested for insecticidal activity using the following testing procedures. LC50 values, based on the results of these tests and calculated according to dosage-mortality curves, are expressed in Table 3.
Tobacco Budworm [Heliothis virescens (Fabricius)]
(a) Contact: Test compounds were diluted in a 50-50 acetonewater solution. Cotton (Gossypium sp.) cotyledons were immersed in the test solutions for 2-3 seconds and placed on a wire screen to dry. The dried leaves were placed in petri dishes containing a moistened piece of filter paper and infested with 5 second-instar tobacco budworm larvae. The dishes were placed in a high humidity chamber for 5 days, and percent mortality of the larvae recorded. Test concentrations ranged from 0.1% downward. The LC-50 values are expressed below in Table 3 under the heading "TBW-C" in terms of percent of the test compound in the solution.

[3] = tested on: Tobacco Budworm [Heliothis virescens (Fabricius)] eggs; assay: Tobacco budworm egg test (TBW-E); conditions: percent in solution
[4] = tested on: Beet Armyworm (Spodoptera exigua); assay: Beet armyworm test (BAW)
Protocol: as §1
Beet Armyworm (Spodoptera exigua)
Test compounds were diluted in a 50-50 acetone-water solution. Young leaves of sugar beets (Beta vulgaris) were immersed in the test solutions for 2-3 seconds and placed on a wire screen to dry. The dried leaves were placed in petri dishes containing a moistened filter paper and infested with five second-instar beet armyworm larvae. The dishes were placed in a high humidity chamber. Mortality of the larvae was recorded five days later. Test concentrations ranged from 0.1% downward. The LC-50 values are expressed below in Table 3 under the heading "BAW" in terms of percent of the test compound in solution.

[5] = tested on: Cabbage Looper [Trichoplusia ni (Hubner)]; assay: Cabbage looper test (CL); conditions: second-instar larvae, 3-5 days, percent in solution
[6] = tested on: Aster Leafhopper [Macrosteles fascifrens (Stal)]; assay: Aster leafhopper test (LH); conditions: adults/nymphs, 48 hours, percent in solution
[7] = tested on: Maize weevil [Sitophilus Zeamais (Motschulsky)]; assay: Maize weevil test (MW); conditions: adult weevils, treated corn seeds, 48 hours, percent in solution
Method in brief: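 Adult weevils (10) were placed with four corn seeds that had been dipped 2-3 s in compound dissolved in 50:50 acetone:water, then dried, and held at about 25° C. Mortality was scored at 48 h. LC50 was taken from dosage-mortality curves and expressed as percent compound in solution, from a 0.01% top concentration.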

[8] = second-instar larvae, five days, percent in solution

| SMILES | LC50 HF [1] | LC50 TBW C [2] | LC50 TBW E [3] | LC50 BAW [4, 8] | LC50 CL [5] | LC50 LH [6] | LC50 MW [7] | LC50 BAW ([4]; 120 h) |
| --- | --- | --- | --- | --- | --- | --- | --- | --- |
| CC(C)C(=Nc1ccc(Cl)c(Cl)c1)OCc1cccc(Oc2ccccc2)c1 [Compound 9] | 14 µg | 0.0008% | 0.02% | 0.0005% | 0.001% | 0.0003% | > 0.01% |  |
| CC(C)C(=Nc1cc(F)cc(C(F)(F)F)c1)OCc1cccc(Oc2ccccc2)c1 [Compound 77] | 10 µg | 0.0004% | 0.03% |  | 0.0005% | 0.0002% | > 0.01% | 0.0004% |
| FC(F)(F)c1ccc(N=C(OCc2cccc(Oc3ccccc3)c2)C(Cl)Cl)cc1 [Compound 61] | 29 µg | 0.03% | 0.03% | 0.002% | 0.001% | > 0.05% | > 0.01% |  |
| Clc1ccc(N=C(OCc2cccc(Oc3ccccc3)c2)C2CC2)cc1 [Compound 32] | 37 µg | 0.006% | 0.1% |  | 0.003% | > 0.05% | > 0.01% | 0.03% |
| CC(C)C(=Nc1ccc(F)c(F)c1)OCc1cccc(Oc2ccccc2)c1 [Compound 54] | 3.5 µg | 0.001% | 0.017% | 0.004% | 0.0003% | 0.00015% |  |  |
| CC(Cl)C(=Nc1ccc(Cl)cc1)OCc1cccc(Oc2ccccc2)c1 (stereo not drawn) [Compound 33] | 17 µg | 0.0025% | > 0.1% | 0.02% | 0.01% | > 0.05% | > 0.01% |  |
| CC(C)C(=Nc1ccc(Cl)c(C(F)(F)F)c1)OCc1cccc(Oc2ccccc2)c1 [Compound 71] | 50 µg | 0.0008% | 0.065% | 0.0004% | 0.0006% | 0.002% |  |  |
| CC(C)C(=Nc1cccc(C(F)(F)F)c1)OCc1ccc(F)c(Oc2ccccc2)c1 [Compound 80] | 4.5 µg | 0.00075% | 0.005% | 0.0018% | 0.0003% | 0.0001% |  |  |
| FC(F)(F)c1ccc(N=C(OCc2cccc(Oc3ccccc3)c2)C2CC2)cc1 [Compound 62] | 20 µg | 0.0015% | 0.025% |  | 0.005% | > 0.05% | > 0.01% | 0.02% |
| CC(C)C(=Nc1cccc(C(F)(F)F)c1)OCc1ccc(F)c(Oc2ccc(F)cc2)c1 [Compound 268] | 4 µg | 0.0005% | 0.023% | 0.001% | 0.000025% | 0.0005% | > 0.01% |  |
| CC(C)C(=Nc1cccc(Cl)c1)OCc1cccc(Oc2ccc(Cl)cc2)c1 [Compound 270] | 12 µg | > 0.0015% | > 0.01% | 0.005% | 0.00025% | 0.003% | > 0.01% |  |
| FC(F)(F)Oc1ccc(N=C(OCc2cccc(Oc3ccccc3)c2)C(Cl)Cl)cc1 [Compound 64] | 11 µg | 0.1% | 0.03% | 0.0025% | 0.0025% | > 0.05% | > 0.01% |  |
| CC(C)C(=Nc1ccc(C(C)C)cc1)OCc1cccc(Oc2ccccc2)c1 [Compound 144] | 100 µg | 0.006% | 0.05% | > 0.01% | 0.002% | 0.0006% | > 0.01% |  |
| CC(C)C(=Nc1ccc(F)cc1F)OCc1cccc(Oc2ccccc2)c1 [Compound 52] | 8 µg | 0.004% | > 0.05% | 0.01% | 0.0025% | 0.001% |  |  |
| Clc1ccc(N=C(OCc2cccc(Oc3ccccc3)c2)C(Cl)Cl)cc1 [Compound 29] | 5 µg | 0.001% | 0.01% | 0.003% | 0.002% | 0.003% | > 0.01% |  |
| CC1(C(=Nc2ccc(Cl)cc2)OCc2cccc(Oc3ccccc3)c2)CC1 [Compound 5] | 21 µg | 0.008% | 0.05% | 0.025% | 0.005% | > 0.05% | > 0.01% |  |
| CC(C)C(=Nc1ccc2c(c1)OC(F)(F)O2)OCc1ccc(F)c(Oc2ccc(F)cc2)c1 [Compound 284] | 39 µg | 0.0002% |  | 0.0025% | 0.00005% | 0.0003% | 0.0075% |  |
| CC(C)C(=Nc1cccc(F)c1)OCc1cccc(Oc2ccccc2)c1 [Compound 47] | 10 µg | 0.002% | 0.06% | 0.002% | 0.002% | 0.0003% |  |  |
| FC(F)(F)Oc1ccc(N=C(OCc2cccc(Oc3ccccc3)c2)C2CC2)cc1 [Compound 63] | 30 µg | 0.001% | 0.05% |  | 0.005% | 0.0001% | > 0.01% | 0.005% |
| CC(C)C(=Nc1ccc(Cl)cc1)OCc1cccc(Oc2ccccc2)c1 [Compound 2] | 4.5 µg | 0.0009% | 0.04% | 0.01% | 0.006% | 0.0003% |  |  |
| CC(C)C(=Nc1ccc(F)c(F)c1F)OCc1cccc(Oc2ccc(F)cc2)c1 [Compound 348] | 8 µg | 0.00075% | > 0.1% | > 0.1% | 0.0002% | 0.05% | > 0.01% |  |
| CC(C)C(=Nc1ccc2c(c1)OCO2)OCc1cccc(Oc2ccc(F)cc2)c1 [Compound 176] | 1.8 µg | 0.002% | 0.05% | 0.0035% | 0.0005% | > 0.05% | 0.009% |  |
| CC(C)C(=Nc1ccc2c(c1)OC(F)(F)O2)OCc1cccc(Oc2ccc(Cl)cc2)c1 [Compound 450] | 72 µg | 0.0001% | 0.015% | 0.005% | 0.00016% |  | 0.01% |  |
| FC(F)(F)c1ccc(N=C(OCc2cccc(Oc3ccccc3)c2)C2CC2)c(Cl)c1 [Compound 65] | > 100 µg | 0.1% | > 0.1% |  | < 0.01% | > 0.05% |  | > 0.1% |
| Fc1ccc(N=C(OCc2cccc(Oc3ccccc3)c2)C2CC2)cc1 [Compound 45] | 30 µg | 0.01% | 0.08% |  | 0.03% | > 0.05% |  | 0.1% |
| Clc1ccc(N=C(OCc2cccc(Oc3ccccc3)c2)C(Cl)Cl)c(Cl)c1 [Compound 4] | 100 µg | 0.05% | > 0.1% | 0.04% | 0.007% | > 0.05% |  |  |
| CC(C)C(=Nc1ccc(Br)cc1)OCc1ccc(F)c(Oc2ccc(F)cc2)c1 [Compound 333] | 15 µg | 0.00075% | 0.025% | > 0.1% | 0.00024% |  | > 0.01% |  |
| CC(C)C(=Nc1ccc(F)c(Cl)c1)OCc1ccc(F)c(Oc2ccc(F)c(F)c2)c1 [Compound 346] | 7.2 µg | 0.0002% | > 0.1% | > 0.1% | > 0.1% | 0.05% |  |  |
